# Where two headings read alike, the source gives them in different places.
# Assays:
# [1] = test system: brewers' yeast-induced hyperthermia; test: antipyretic activity, brewers' yeast-induced hyperthermia; assay type: in vivo, albino male Wistar rats
# Procedure: The animals were caged under the same conditions as those described in the preceding tests. Five hours following […], determined by a rectal probe connected to a YSI thermometer (73 ATP model, Yellow Springs Instrument Company) were selected for the experiment. The animals were then randomized into groups of 10 and the compounds under examination and the vehicle were administered via the oral and parenteral routes testing each dose in two groups. Body temperature was determined at one, two and three hours after administration of the substances. […]
# in vivo [2] = conditions: rat
# gastric lesions = assay type: in vivo, male Wistar rats; conditions: 4 consecutive days; for gastric damage index: I=mean no. of lesions+mean of severity+% incidence/10; for mean severity: scale 0 (no lesion) to 5 (perforations)
# Procedure: Male Wistar rats weighing 180 g were randomized into groups of 10. Three doses of each compound were administered. One group received the vehicle alone (10 ml/kg b.w.). Each dose was given orally for four days consecutively and the rats were sacrificed on the fifth day for necropsy. The ulcerogenic effect was evaluated by the following scale:
# (1) each haemorrhagic point at least 1 mm in diameter was scored as 1 lesion,
# (2) haemorrhagic points less than 1 mm in diameter were scored in the following manner:
# (c) 20 to 29=three lesions
# By means of this scale it was possible to obtain the gastric damage index:
# I=mean no. of lesions+mean of severity+% incidence/10
# in vivo [3] = conditions: mouse
# solubility = assay type: physicochemical
# [4] = test system: phenyl-p-quinone-induced writhing (abdominal contractions); test: phenylquinone-induced writhing test, oral administration 1-24 h before phenyl-quinone (duration of analgesia); assay type: in vivo, male Wistar rats
# Procedure: Male Wistar rats weighing 110±5 g were caged for 10 days at 22±1° C. and given a balanced diet with free access to water. Twenty-four hours before the experiment the animals were randomized into groups of 10 and fasted for 14 hours but with free access to water. Each dose was tested in 3 groups of rats. […] alone (0.5% carboxymethyl-cellulose in physiological saline) in the control animals, each rat was given 2 ml of a 5% absolute ethanol aqueous solution containing 0.36% of phenyl-p-quinone (Sigma Chemical Company) in order to provoke writhings. Fifteen minutes after administration of phenyl-p-quinone the number of contractions were counted for 20 minutes. The inhibiting effect of the compounds under examination on the abdominal contractions induced by phenyl-p-quinone was calculated by the following formula: % protection= [formula]
smiles,measurement,setting,value
"Cc1ccc(C(=O)c2ccc(CC(=O)NCC(=O)O)n2C)cc1 [Compound 1-c, 1-methyl-5-p-toluoylpyrrole-2-acetamidoacetic acid]",% Temperature decrease,"[1]; 50 mg/Kg i.p., 1 h",20.0%
same,% Temperature decrease,"[1]; 50 mg/Kg i.p., 2 h",21.9%
same,% Temperature decrease,"[1]; 50 mg/Kg i.p., 3 h",36.0%
same,% Temperature decrease,"[1]; 50 mg/Kg per os, 1 h",15.0%
same,% Temperature decrease,"[1]; 50 mg/Kg per os, 2 h",23.0%
same,% Temperature decrease,"[1]; 50 mg/Kg per os, 3 h",32.0%
same,% Temperature decrease,"[1]; 75 mg/Kg i.p., 1 h",19.0%
same,% Temperature decrease,"[1]; 75 mg/Kg i.p., 2 h",32.6%
same,% Temperature decrease,"[1]; 75 mg/Kg i.p., 3 h",45.2%
same,% Temperature decrease,"[1]; 75 mg/Kg per os, 1 h",16.5%
same,% Temperature decrease,"[1]; 75 mg/Kg per os, 2 h",30.7%
same,% Temperature decrease,"[1]; 75 mg/Kg per os, 3 h",42.1%
same,% Temperature decrease,"[1]; 100 mg/Kg i.p., 1 h",35.0%
same,% Temperature decrease,"[1]; 100 mg/Kg i.p., 2 h",49.1%
same,% Temperature decrease,"[1]; 100 mg/Kg i.p., 3 h",65.7%
same,% Temperature decrease,"[1]; 100 mg/Kg per os, 1 h",27.1%
same,% Temperature decrease,"[1]; 100 mg/Kg per os, 2 h",31.2%
same,% Temperature decrease,"[1]; 100 mg/Kg per os, 3 h",57.9%
same,LD50,in vivo [2]; ip,780 mg/kg
same,LD50,in vivo [2]; po,1300 mg/kg
same,% incidence/10 (head is drawing 38),gastric lesions; 50 mg/Kg orally,7
same,mean no. of lesions,gastric lesions; 50 mg/Kg orally,1
same,gastric damage index,gastric lesions; 50 mg/Kg orally,9.5
same,mean severity,gastric lesions; 50 mg/Kg orally,1.5
same,% incidence/10 (head is drawing 38),gastric lesions; 100 mg/Kg orally,8
same,mean no. of lesions,gastric lesions; 100 mg/Kg orally,2
same,gastric damage index,gastric lesions; 100 mg/Kg orally,12
same,mean severity,gastric lesions; 100 mg/Kg orally,2
same,% incidence/10 (head is drawing 38),gastric lesions; 200 mg/Kg orally,9
same,mean no. of lesions,gastric lesions; 200 mg/Kg orally,2.5
same,gastric damage index,gastric lesions; 200 mg/Kg orally,13.5
same,mean severity,gastric lesions; 200 mg/Kg orally,2
same,LD50,in vivo [3]; ip,700 mg/kg
same,LD50,in vivo [3]; po,1000 mg/kg
same,Solubility,solubility,soluble in alkali
"COc1ccccc1OC(=O)CNC(=O)Cc1ccc(C(=O)c2ccc(C)cc2)n1C [Compound 1-d, 1-methyl-5-p-toluoylpyrrole-2-acetamidoacetic acid guaiacyl ester]",% Temperature decrease,"[1]; 50 mg/Kg i.p., 1 h",16.0%
same,% Temperature decrease,"[1]; 50 mg/Kg i.p., 2 h",23.0%
same,% Temperature decrease,"[1]; 50 mg/Kg i.p., 3 h",37.5%
same,% Temperature decrease,"[1]; 50 mg/Kg per os, 1 h",14.0%
same,% Temperature decrease,"[1]; 50 mg/Kg per os, 2 h",22.0%
same,% Temperature decrease,"[1]; 50 mg/Kg per os, 3 h",31.6%
same,% Temperature decrease,"[1]; 75 mg/Kg i.p., 1 h",22.1%
same,% Temperature decrease,"[1]; 75 mg/Kg i.p., 2 h",33.4%
same,% Temperature decrease,"[1]; 75 mg/Kg i.p., 3 h",39.8%
same,% Temperature decrease,"[1]; 75 mg/Kg per os, 1 h",18.5%
same,% Temperature decrease,"[1]; 75 mg/Kg per os, 2 h",23.4%
same,% Temperature decrease,"[1]; 75 mg/Kg per os, 3 h",29.1%
same,% Temperature decrease,"[1]; 100 mg/Kg i.p., 1 h",28.1%
same,% Temperature decrease,"[1]; 100 mg/Kg i.p., 2 h",37.2%
same,% Temperature decrease,"[1]; 100 mg/Kg i.p., 3 h",60.4%
same,% Temperature decrease,"[1]; 100 mg/Kg per os, 1 h",22.0%
same,% Temperature decrease,"[1]; 100 mg/Kg per os, 2 h",42.5%
same,% Temperature decrease,"[1]; 100 mg/Kg per os, 3 h",59.0%
same,LD50,in vivo [2]; ip,1100 mg/kg
same,LD50,in vivo [2]; po,1450 mg/kg
same,% Protection,"[4]; 10 mg/Kg oral, 1 h before phenyl-quinone",55.7%
same,% Protection,"[4]; 10 mg/Kg oral, 2 h before phenyl-quinone",43.3%
same,% Protection,"[4]; 10 mg/Kg oral, 4 h before phenyl-quinone",40.1%
same,% Protection,"[4]; 10 mg/Kg oral, 6 h before phenyl-quinone",44.0%
same,% Protection,"[4]; 10 mg/Kg oral, 8 h before phenyl-quinone",32.0%
same,% Protection,"[4]; 10 mg/Kg oral, 16 h before phenyl-quinone",12.1%
same,% Protection,"[4]; 10 mg/Kg oral, 24 h before phenyl-quinone",10.0%
same,% Protection,"[4]; 20 mg/Kg oral, 1 h before phenyl-quinone",78.1%
same,% Protection,"[4]; 20 mg/Kg oral, 2 h before phenyl-quinone",80.6%
same,% Protection,"[4]; 20 mg/Kg oral, 4 h before phenyl-quinone",70.5%
same,% Protection,"[4]; 20 mg/Kg oral, 6 h before phenyl-quinone",66.3%
same,% Protection,"[4]; 20 mg/Kg oral, 8 h before phenyl-quinone",71.0%
same,% Protection,"[4]; 20 mg/Kg oral, 16 h before phenyl-quinone",23.6%
same,% Protection,"[4]; 20 mg/Kg oral, 24 h before phenyl-quinone",25.0%
same,% Protection,"[4]; 50 mg/Kg oral, 1 h before phenyl-quinone",86.4%
same,% Protection,"[4]; 50 mg/Kg oral, 2 h before phenyl-quinone",87.0%
same,% Protection,"[4]; 50 mg/Kg oral, 4 h before phenyl-quinone",81.5%
same,% Protection,"[4]; 50 mg/Kg oral, 6 h before phenyl-quinone",76.8%
same,% Protection,"[4]; 50 mg/Kg oral, 8 h before phenyl-quinone",75.0%
same,% Protection,"[4]; 50 mg/Kg oral, 16 h before phenyl-quinone",60.7%
same,% Protection,"[4]; 50 mg/Kg oral, 24 h before phenyl-quinone",64.0%
same,% incidence/10 (head is drawing 38),gastric lesions; 50 mg/Kg orally,6
same,mean no. of lesions,gastric lesions; 50 mg/Kg orally,1.5
same,gastric damage index,gastric lesions; 50 mg/Kg orally,8.5
same,mean severity,gastric lesions; 50 mg/Kg orally,1
same,% incidence/10 (head is drawing 38),gastric lesions; 100 mg/Kg orally,9
same,mean no. of lesions,gastric lesions; 100 mg/Kg orally,2
same,gastric damage index,gastric lesions; 100 mg/Kg orally,12.5
same,mean severity,gastric lesions; 100 mg/Kg orally,1.5
same,% incidence/10 (head is drawing 38),gastric lesions; 200 mg/Kg orally,9
same,mean no. of lesions,gastric lesions; 200 mg/Kg orally,2
same,gastric damage index,gastric lesions; 200 mg/Kg orally,13
same,mean severity,gastric lesions; 200 mg/Kg orally,2
same,LD50,in vivo [3]; ip,1370 mg/kg
same,LD50,in vivo [3]; po,> 1500 mg/kg
same,Solubility,solubility,soluble in the common organic solvents
